Measurements from patent US11952384B2, “Anti-tumor compound and preparation method and use thereof” (DUALITY BIOLOGICS (SUZHOU) CO., LTD., priority 2020, dated 2024).
Like-named read-outs stand apart in the source and are kept apart here.

How the values were obtained:
[1] = system: JIMT-1 cells; test: Inhibition of in vitro proliferation of tumor cells by compounds (CTG, 6 days); assay type: cell-based; conditions: Table 1, Test Example 2.1, small molecule fragments, 6 days of culture, CTG, read-out: JIMT-1 IC50
Experimental: (§1) To test the inhibitory activity of the pharmaceutical compounds on the in vitro proliferation of NCI-N87, JIMT-1 and MBA-MB-231 tumor cells. The cells were treated with the compounds at different concentrations in vitro, and after 6 days of culture, the proliferation of cells was detected using the CTG (CellTiter-Glo® Luminescent Cell Viability Assay, Promega, Cat. No. G7558) reagent, and the in vitro activity of the compounds was evaluated according to the IC50 value.
(§2) In the following, the test for the inhibition of the in vitro proliferation of NCI-N87 cells was taken as an example to illustrate the method of the present application for testing the inhibitory activity of the compounds of the present application on the in vitro proliferation of tumor cells. The method was also applicable to, but not limited to, the test for the inhibitory activity on the in vitro proliferation of other tumor cells. • 1. Culturing of cells: NCI-N87 cells were cultured in RPMI-1640 medium containing 10% FBS. • 2. Preparation of cells: NCI-N87 cells in logarithmic phase were taken, washed with PBS once, and digested with 2-3 mL of trypsin for 2-3 min. After the cells were digested completely, 10-15 mL of cell culture was added to elute the digested cells. The eluate was centrifuged at 1000 rpm for 5 min, and the supernatant was discarded. The resulting cells were resuspended in 10-20 mL of cell culture to obtain a single cell suspension. • 3. Cell plating: the NCI-N87 single cell suspension was mixed well and adjusted to a viable cell density of 6×10^4 cells/mL with cell culture. The cell suspension with the adjusted density was mixed well and added to a 96-well cell culture plate at 50 μL/well. The culture plate was incubated in an incubator for 18 h (37° C., 5% CO2). • 4. Preparation of compounds: the compounds were dissolved in DMSO to obtain stock solutions at an initial concentration of 10 mM. There were 8 concentrations in total for the small molecule compounds: 300 nM, 100 nM, 30 nM, 10 nM, 3 nM, 1 nM, 0.3 nM, and 0.1 nM. • 5. Sample adding: the prepared samples to be detected at different concentrations were added to the culture plate, and two duplicate wells were set for each sample. The culture plate was incubated in an incubator for 6 days (37° C., 5% CO2). • 6. Color developing: the 96-well cell culture plate was taken out, added with the CTG reagent at 50 μL/well, and incubated at room temperature for 10 min. • 7. Plate reading: the 96-well cell culture plate was taken out, placed in a microplate reader, and measured for the chemiluminescence using the microplate reader. Data Analysis
(§3) Data were processed and analyzed using Microsoft Excel and Graphpad Prism 5.
(§4) To test the inhibitory activity of the pharmaceutical compounds on the in vitro proliferation of NCI-N87, JIMT-1 and MBA-MB-231 tumor cells. The cells were treated with compounds at different concentrations in vitro, and after 6 days of culture, the proliferation of cells was detected using CTG (CellTiter-Glo® Luminescent Cell Viability Assay, Promega, Cat. No. G7558) reagents, and the in vitro activity of the compounds was evaluated according to the IC50 value. • 1. Culturing of cells: NCI-N87/JIMT-1/MBA-MB-231 cells were cultured in RPMI-1640 medium containing 10% FBS. • 2. Preparation of cells: NCI-N87/JIMT-1/MBA-MB-231 cells in logarithmic phase were taken, washed with PBS once, and digested with 2-3 mL of trypsin for 2-3 min. After the cells were digested completely, 10-15 mL of cell culture was added to elute the digested cells. The eluate was centrifuged at 1000 rpm for 5 min, and the supernatant was discarded. The resulting cells were resuspended in 10-20 mL of cell culture to obtain a single cell suspension. • 3. Cell plating: the NCI-N87/JIMT-1/MBA-MB-231 single cell suspension was mixed well and adjusted to a viable cell density of 6×10^4 cells/mL with cell culture. […]

[2] = system: NCI-N87 cells; test: as above; assay type: cell-based; conditions: small molecule fragments, 6 days of culture, CTG, read-out: NCI-N87 IC50
Experimental: as §1, §2, §3, §4

[3] = molecular target: T1, P-gp (Homo sapiens, UniProt P08183); test: Study on transporter substrates in Caco-2 cell model; assay type: in vitro ADME; conditions: Caco-2
T1 construct: endogenous in cells; host or cells: Caco-2
Experimental: The resistance of each well was recorded. […] 2. […] The plate was vortexed for 10 min. The samples were centrifuged. […] HBSS was added to the basolateral compartment. […] 3. Data Analysis
Data were calculated using Microsoft Excel.

[4] = molecular target: T2, BCRP (Homo sapiens, UniProt Q9UNQ0); conditions: Caco-2
T2 sequence (Q9UNQ0 1-655): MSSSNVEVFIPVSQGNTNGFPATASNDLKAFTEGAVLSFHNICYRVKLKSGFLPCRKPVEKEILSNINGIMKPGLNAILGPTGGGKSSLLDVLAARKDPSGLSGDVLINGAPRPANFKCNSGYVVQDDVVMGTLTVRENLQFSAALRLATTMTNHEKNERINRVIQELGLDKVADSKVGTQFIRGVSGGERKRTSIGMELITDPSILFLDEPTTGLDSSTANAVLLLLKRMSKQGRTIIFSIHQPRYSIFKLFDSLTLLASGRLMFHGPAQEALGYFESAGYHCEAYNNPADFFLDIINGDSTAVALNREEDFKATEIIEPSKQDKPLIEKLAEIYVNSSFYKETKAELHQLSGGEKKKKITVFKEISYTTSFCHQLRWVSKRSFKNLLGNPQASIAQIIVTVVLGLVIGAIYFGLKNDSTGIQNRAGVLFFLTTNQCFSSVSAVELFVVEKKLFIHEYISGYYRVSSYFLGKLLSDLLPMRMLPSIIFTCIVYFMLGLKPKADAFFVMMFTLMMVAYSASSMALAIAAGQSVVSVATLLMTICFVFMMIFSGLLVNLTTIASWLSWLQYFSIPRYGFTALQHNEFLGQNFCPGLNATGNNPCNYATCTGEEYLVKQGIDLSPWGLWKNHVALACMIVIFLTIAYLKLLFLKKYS
Experimental: (§5) To investigate whether the compounds of the present invention is a substrate for efflux transporters P-gp and BCRP in a Caco-2 cell model, thereby providing preclinical basis for analyzing the drug-drug interaction in pharmacokinetics.
(§6) • 1) Cell culture medium was added to each well of the Transwell. The HTS Transwell plate was incubated under conditions of 37° C. and 5% CO2 for 1 h prior to cell inoculation. • 2) Caco-2 cells were diluted with culture medium and the cell suspension was dispensed into filter wells of the 96-well HTS Transwell plate. […] The cell culture medium was changed periodically. • 3) Monolayer cell resistance was measured using the Millicell Epithelial Volt-Ohm detection system. The resistance of each well was recorded. After all wells were measured, the Transwell plate was put back into the incubator. TEER of each well was calculated according to the formula. The TEER value of each well should be greater than 230 ohm·cm^2. […] Preparation for Transporter Test • 1) The Caco-2 plate was taken out from the incubator. The monolayer cells were washed with pre-heated HBSS twice. The plate was then incubated at 37° C. for 30 min. • 2) Stock solutions of the compounds were prepared in DMSO and diluted with HBSS to obtain working solutions. Digoxin was used as a reference substrate for P-gp and rosuvastatin was used as a reference substrate for BCRP. Propranolol was used as a high permeability marker. • 3) The working solution (without inhibitor) was added to the Transwell insert (apical compartment) to determine the rate of drug transport in the apical to basolateral direction. The transfer buffer was added to the wells in the receiver plate (basolateral compartment). The working solution (without inhibitor) was added to the receiver plate wells (basolateral compartment) to determine the rate of drug transport in the basolateral to apical direction. The Transwell insert (apical compartment) was filled with the transport buffer. PSC833 was added to the apical and basolateral compartments to determine the rate of drug transport in the presence of P-gp inhibitors. • 4) The sample was transferred from the working solution to the quenching solution, and a sample with a time of 0 was prepared. The Transwell plate was incubated under conditions of 37° C. and 5% CO2 for 2 h. • 5) At the end of the transport cycle, the samples were transferred from the apical and basolateral wells into a new 96-well plate. Cold acetonitrile or methanol containing the appropriate internal standard (IS) was added to each well of the plate. The plate was vortexed for 10 min. The samples were centrifuged. The supernatant of an aliquot was mixed with an appropriate amount of ultrapure water (depending on the LC-MS/MS signal response and peak shape) prior to the LC-MS/MS analysis. • 6) The stock solution of lucifer yellow in DMSO was prepared and diluted with HBSS to determine the amount of lucifer yellow leakage after a 2-hour transport period. The lucifer yellow solution was added to the apical compartment. HBSS was added to the basolateral compartment. The plate was incubated at 37° C. for 30 min, and a certain amount of the solution was directly taken from the apical and basolateral wells and transferred to a new 96-well plate. The lucifer yellow fluorescence was measured in a fluorescence plate reader with 485 nm excitation and 530 nm emission (to monitor monolayer integrity).
(§7) Data were calculated using Microsoft Excel. The percentage of the compound remaining at each time point was estimated by determining the peak area ratio from the extracted ion chromatogram.
(§8) For drug transport analysis in the Caco-2 cell model, the apparent permeability coefficient (Papp) can be calculated according to the following formula, in cm/s:
(§9) [formula] • wherein the concentration C is in nM, the volume V is in μL, the time T is in s, and the area S is in cm^2.
(§10) The recovery rate is calculated according to the following formula:

[5] = molecular target: T2, BCRP; test: in vitro
Experimental: as §5, §6, §7, §8, §9, §10

[6] = molecular target: T2, BCRP; test: Study on transporter substrates in Caco-2 cell model; conditions: human, Caco-2
Experimental: as §5, §6, §7, §8, §9, §10

[7] = system: MDA-MB-231 cells; test: Inhibition of in vitro proliferation of tumor cells by compounds (CTG, 6 days); assay type: cell-based; conditions: Homo sapiens, MDA-MB-231, 144 h, Table 3, Test Example 2.3; small molecule fragments; 6 days of culture, CTG; read-out: MDA-MB-231 IC50
Experimental: To test the inhibitory activity of the pharmaceutical compounds on the in vitro proliferation of NCI-N87, JIMT-1 and MBA-MB-231 tumor cells. The cells were treated with compounds at different concentrations in vitro, and after 6 days of culture, the proliferation of cells was detected using CTG (CellTiter-Glo® Luminescent Cell Viability Assay, Promega, Cat. No. G7558) reagents, and the in vitro activity of the compounds was evaluated according to the IC50 value. • 1. Culturing of cells: NCI-N87/JIMT-1/MBA-MB-231 cells were cultured in RPMI-1640 medium containing 10% FBS. • 2. Preparation of cells: NCI-N87/JIMT-1/MBA-MB-231 cells in logarithmic phase were taken, washed with PBS once, and digested with 2-3 mL of trypsin for 2-3 min. After the cells were digested completely, 10-15 mL of cell culture was added to elute the digested cells. The eluate was centrifuged at 1000 rpm for 5 min, and the supernatant was discarded. The resulting cells were resuspended in 10-20 mL of cell culture to obtain a single cell suspension. • 3. Cell plating: the NCI-N87/JIMT-1/MBA-MB-231 single cell suspension was mixed well and adjusted to a viable cell density of 6×10^4 cells/mL with cell culture. The cell suspension with the adjusted density was mixed well and added to a 96-well cell culture plate at 50 μL/well. The culture plate was incubated in an incubator for 18 h (37° C., 5% CO2). • 4. Preparation of compounds: the compounds were dissolved in DMSO to obtain stock solutions at an initial concentration of 10 mM. There were 8 concentrations in total for the small molecule compounds: 300 nM, 100 nM, 30 nM, 10 nM, 3 nM, 1 nM, 0.3 nM, and 0.1 nM. • 5. Sample adding: the prepared samples to be detected at different concentrations were added to the culture plate, and two duplicate wells were set for each sample. The culture plate was incubated in an incubator for 6 days (37° C., 5% CO2). • 6. Color developing: the 96-well cell culture plate was taken out, added with the CTG reagent at 50 μL/well, and incubated at room temperature for 10 min. • 7. Plate reading: the 96-well cell culture plate was taken out, placed in a microplate reader, and measured for the chemiluminescence using the microplate reader. Data analysis: data were processed and analyzed using Microsoft Excel and Graphpad Prism 5.

[8] = system: Colo205 cells; test: as above; assay type: cell-based; conditions: Homo sapiens, COLO 205, 144 h, Table 4, Test Example 2.4, small molecule fragments, 6 days of culture
Experimental: To test the inhibitory activity of the pharmaceutical compounds on the in vitro proliferation of NCI-N87 and Colo205 tumor cells. The cells were treated with compounds at different concentrations in vitro, and after 6 days of culture, the proliferation of cells was detected using CTG (CellTiter-Glo® Luminescent Cell Viability Assay, Promega, Cat. No. G7558) reagents, and the in vitro activity of the compounds was evaluated according to the IC50 value. • 1. Culturing of cells: NCI-N87/Colo205 cells were cultured in RPMI-1640 medium containing 10% FBS. • 2. Preparation of cells: NCI-N87/Colo205 cells in logarithmic phase were taken, washed with PBS once, and digested with 2-3 mL of trypsin for 2-3 min. After the cells were digested completely, 10-15 mL of cell culture was added to elute the digested cells. The eluate was centrifuged at 1000 rpm for 5 min, and the supernatant was discarded. […] Sample adding: the prepared samples to be detected at different concentrations were added to the culture plate, and two duplicate wells were set for each sample. […] Plate reading: the 96-well cell culture plate was taken out, placed in a microplate reader, and measured for the chemiluminescence using the microplate reader. Data analysis: data were processed and analyzed using Microsoft Excel and Graphpad Prism 5.

T1 sequence (P08183 whole entry): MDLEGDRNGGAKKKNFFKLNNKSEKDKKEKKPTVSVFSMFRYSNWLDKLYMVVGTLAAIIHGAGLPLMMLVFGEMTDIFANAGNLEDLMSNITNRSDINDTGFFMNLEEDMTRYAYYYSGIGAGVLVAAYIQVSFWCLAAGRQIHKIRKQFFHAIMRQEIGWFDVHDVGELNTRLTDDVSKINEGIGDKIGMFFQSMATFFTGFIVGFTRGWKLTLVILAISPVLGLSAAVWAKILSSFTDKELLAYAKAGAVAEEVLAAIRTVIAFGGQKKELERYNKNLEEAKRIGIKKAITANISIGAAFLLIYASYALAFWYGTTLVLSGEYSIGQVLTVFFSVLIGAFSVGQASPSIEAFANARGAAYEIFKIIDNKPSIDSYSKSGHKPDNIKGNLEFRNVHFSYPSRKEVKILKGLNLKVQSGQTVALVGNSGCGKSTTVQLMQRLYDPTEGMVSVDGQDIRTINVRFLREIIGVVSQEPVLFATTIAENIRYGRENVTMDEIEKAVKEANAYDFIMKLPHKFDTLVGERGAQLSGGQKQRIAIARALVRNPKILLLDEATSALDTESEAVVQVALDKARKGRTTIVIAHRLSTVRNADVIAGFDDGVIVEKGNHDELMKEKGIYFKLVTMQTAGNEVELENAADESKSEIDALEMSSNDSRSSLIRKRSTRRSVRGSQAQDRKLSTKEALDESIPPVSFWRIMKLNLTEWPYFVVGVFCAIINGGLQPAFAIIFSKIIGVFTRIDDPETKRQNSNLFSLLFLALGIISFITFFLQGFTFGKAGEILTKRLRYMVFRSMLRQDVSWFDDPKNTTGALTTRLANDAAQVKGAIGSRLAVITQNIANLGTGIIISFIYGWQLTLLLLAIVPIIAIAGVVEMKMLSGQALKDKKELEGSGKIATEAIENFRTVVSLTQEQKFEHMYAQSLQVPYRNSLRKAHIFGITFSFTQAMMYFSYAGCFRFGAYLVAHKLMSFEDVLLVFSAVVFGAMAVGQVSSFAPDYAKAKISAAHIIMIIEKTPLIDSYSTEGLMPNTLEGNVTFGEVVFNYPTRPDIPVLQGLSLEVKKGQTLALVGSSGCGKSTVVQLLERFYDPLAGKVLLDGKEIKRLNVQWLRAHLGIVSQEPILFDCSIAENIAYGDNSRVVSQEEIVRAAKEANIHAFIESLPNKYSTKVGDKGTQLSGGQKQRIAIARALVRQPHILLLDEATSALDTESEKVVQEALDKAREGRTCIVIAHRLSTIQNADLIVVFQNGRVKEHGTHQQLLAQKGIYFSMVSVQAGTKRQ

## CC[C@@]1(O)C(=O)OCc2c1cc1n(c2=O)Cc2c-1nc1cc(F)c(C)c3c1c2[C@@H](N1CCC(O)C1=O)CC3 (some centres unmarked) [P-I-1]
[1]; Homo sapiens, JIMT-1, 144 h
  IC50: 23.7 nM
[1]
  IC50: 21.8 nM
[2]; Homo sapiens, NCI-N87, 144 h, Table 1, Test Example 2.1
  IC50: 97.3 nM
[2]; Table 1, Test Example 2.1
  IC50: 61.6 nM
[3]
  P-gp substrate: neither transporter P-gp substrates nor transporter BCRP substrates
[4]
  Papp (A-B) (10^−6, cm/s): 0.21 10^−6, cm/s
  Papp (B-A) (10^−6, cm/s): 4.94 10^−6, cm/s
[5]; Caco-2, Papp (A-B) (10^−6, cm/s)
  Papp A→B at 2 h: 0.13 ×10⁻⁶ cm/s
[5]; Caco-2, Papp (B-A) (10^−6, cm/s)
  Papp B→A at 2 h: 4.06 ×10⁻⁶ cm/s
[6]; Caco-2, Efflux ratio, KO143 −
  efflux ratio at 2 h: 32.4
[6]; Caco-2, Recovery rate (%) AP-BL, KO143 −
  recovery at 2 h: 80.5%
[6]; Caco-2, Recovery rate (%) BL-AP, KO143 −
  recovery at 2 h: 76.1%
[6]; Caco-2, with KO143 (concentration not stated), Recovery rate (%) AP-BL, KO143 +
  recovery at 2 h: 81.5%
[6]; Caco-2, with KO143 (concentration not stated), Recovery rate (%) BL-AP, KO143 +
  recovery at 2 h: 80.3%

## CC[C@@]1(O)C(=O)OCc2c1cc1n(c2=O)Cc2c-1nc1cc(F)c(C)c3c1c2[C@@H](NC(=O)C[C@H](C)O)CC3 [P-III-30, (S)-N-((1S,9S)-9-ethyl-5-fluoro-9-hydroxy-4-methyl-10,13-dioxo-2,3,9,10,13,15-hexahydro-1H,12H-benzo[de]pyrano[3′,4′:6,7]indolizino[1,2-b]quinolin-1-yl)-3-hydroxybutanamide]
[2]; Homo sapiens, NCI-N87, 144 h, Table 4, Test Example 2.4
  IC50: 3 nM
[7]
  IC50: 28.5 nM
[8]
  IC50: 9 nM
